Data on 4 compounds can be found in US4497742A, “Isomerization of β-lactam compounds” (Takeda Chemical Industries, Ltd., priority 1981, dated 1985).

Where a name gives a salt, the structure may show the parent alone. Read-outs that look alike come from different tables or passages of the source.

For orientation: MIC means the least concentration at which growth counts as inhibited.

Experiment [1] concerns Staphylococcus aureus FDA 209P. Kind of experiment: Antimicrobial spectrum (MIC), Staphylococcus aureus FDA 209P. Format: cell-based. To be noted: FDA209P.
Experiment [2] has as its target T1, beta-Lactamase (Staphylococcus aureus, UniProt P00807).
T1 construct: endogenous in cells; host or cells: Staphylococcus aureus 1840 (producing strain)
Briefly: beta-Lactamase-inhibitory activity, producing strain Staphylococcus aureus 1840. Format: biochemical. To be noted: read-out: beta-Lactamase-inhibitory activity [1D50] (converted).

Experiment [3] has as its system beta-Lactamase. Kind of experiment: beta-Lactamase-inhibitory activity, producing strain Escherichia coli TN 713. Format: biochemical.
For experiment [4], the target named is T2, beta-Lactamase (Enterobacter cloacae, UniProt P05364).
T2 construct: endogenous in cells; host or cells: Enterobacter cloacae TN 1282 (producing strain)
Briefly: beta-Lactamase-inhibitory activity, producing strain Enterobacter cloacae TN 1282. Particulars: read-out: beta-Lactamase-inhibitory activity [1D50] (converted). The experiment is classed as biochemical.

Experiment [5] addresses beta-Lactamase. Kind of experiment: beta-Lactamase-inhibitory activity, producing strain Proteus vulgaris GN 4413. The experiment is classed as biochemical.
Experiment [6] relates to Escherichia coli NIHJ J2C. Kind of experiment: Antimicrobial spectrum (MIC), Escherichia coli NIHJ J2C. The experiment is classed as cell-based. Particulars: NIHJJ2C.
Experiment [7] relates to Proteus vulgaris IFO 3988. Briefly: Antimicrobial spectrum (MIC), Proteus vulgaris IFO 3988. The experiment is classed as cell-based. Particulars: IFO3988.
The test system of experiment [8] is Salmonella typhimurium IFO 12529. Briefly: Antimicrobial spectrum (MIC), Salmonella typhimurium IFO 12529. To be noted: Salmonella enterica. Format: cell-based.
[9] abbreviates: Proteus vulgaris IFO 3988, read-out: MIC.

T2 sequence (P05364 21-381): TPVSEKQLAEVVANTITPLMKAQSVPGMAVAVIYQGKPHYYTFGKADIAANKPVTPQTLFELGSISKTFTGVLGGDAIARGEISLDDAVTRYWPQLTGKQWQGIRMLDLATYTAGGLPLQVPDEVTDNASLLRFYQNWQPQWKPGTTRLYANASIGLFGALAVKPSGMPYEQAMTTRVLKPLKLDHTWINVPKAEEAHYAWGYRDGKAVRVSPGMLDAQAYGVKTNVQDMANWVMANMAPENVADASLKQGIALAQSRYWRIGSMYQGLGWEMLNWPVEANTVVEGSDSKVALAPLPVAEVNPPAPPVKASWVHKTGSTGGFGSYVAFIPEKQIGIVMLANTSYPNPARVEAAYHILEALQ
T1 sequence (P00807 25-281): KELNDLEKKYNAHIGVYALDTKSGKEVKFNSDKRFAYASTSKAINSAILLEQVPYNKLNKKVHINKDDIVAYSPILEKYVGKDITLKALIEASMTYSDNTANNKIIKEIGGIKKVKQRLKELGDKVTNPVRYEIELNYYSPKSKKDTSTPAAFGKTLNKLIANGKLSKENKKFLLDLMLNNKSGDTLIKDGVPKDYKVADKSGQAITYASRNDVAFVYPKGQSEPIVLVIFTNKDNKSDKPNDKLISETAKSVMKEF

The compound `CC(=O)N/C=C\[S@@+]([O-])C1=C(C(=O)[O-])N2C(=O)[C@@H](C(C)(C)O)[C@H]2C1.[Na+]` [Ia, sodium [5R, 6R]-3-[(Z)-2-acetamidoethenyl-(R)-sulfinyl]-6-[1-hydroxy-1-methylethyl]-7-oxo-1-azabicyclo(3,2,0)-hept-2-ene-2-carboxylate] showed an MIC in experiment [1] of 0.39 µg/mL. Moreover, the IC50 was 151 nM on beta-Lactamase [2] and 13.7 nM at beta-Lactamase [4]. Moreover, the “beta-Lactamase-inhibitory activity [1D50]” value in the experiment with beta-Lactamase [3] amounted to 0.0016 µg/mL; on beta-Lactamase [5], 0.00105 µg/mL.
`CC(=O)N/C=C\[S@@+]([O-])C1=C(C(=O)O)N2C(=O)[C@@H](C(C)(C)OS(=O)(=O)O)[C@H]2C1` [Ib, [5R, 6R]-3-[(Z)-2-acetamidoethenyl-(R)-sulfinyl]-6-(1-hydroxysulfonyloxy-1-methylethyl)-7-oxo-1-azabicyclo (3,2,0)-hept-2-ene-2-carboxylic acid disodium salt]: the MIC came to 20 µg/mL in experiment [6], 40 µg/mL in experiment [7] (setting [9]), 20 µg/mL in experiment [8] and 2.5 µg/mL in experiment [1]. For the same compound, the IC50 is 568 nM on beta-Lactamase [2] and 36 nM on beta-Lactamase [4]. Also, the “beta-Lactamase-inhibitory activity [1D50]” value was determined as 0.0001175 µg/mL in the experiment with beta-Lactamase [3] and 0.00055 µg/mL on beta-Lactamase [5].
`CC(=O)N/C=C\SC1=C(C(=O)[O-])N2C(=O)[C@@H](C(C)(C)O)[C@H]2C1.[Na+]` [Ig, sodium [5R, 6R]-3-[(Z)-2-acetamidoethenyl-thio]-6-[1-hydroxy-1-methyl-ethyl]-7-oxo-1-azabicyclo(3,2,0)-hept-2-ene-2-carboxylate]: the MIC in experiment [6] is 2.5 µg/mL; in experiment [7] (Proteus vulgaris), 5 µg/mL; in experiment [8], 2.5 µg/mL; in experiment [1], 0.625 µg/mL. Besides, the results for the “beta-Lactamase-inhibitory activity [1D50]” value in the experiment on beta-Lactamase [3] and at beta-Lactamase [5] were 0.010 µg/mL and 0.017 µg/mL, respectively. Further, the IC50 on beta-Lactamase [4] is 86.1 nM.
In the case of `CC(=O)N/C=C\SC1=C(C(=O)O)N2C(=O)[C@@H](C(C)(C)OS(=O)(=O)O)[C@H]2C1` [Ih, [5R, 6R]-3-[(Z)-2-acetamidoethenyl-thio]-6-[1-hydroxysulfonyloxy-1-methyl-ethyl]-7-oxo-1-azabicyclo(3,2,0)-hept-2-ene-2-carboxylic acid disodium salt], the MIC in experiment [6] was 40 µg/mL; in experiment [7] (setting [9]), under 40 µg/mL; in experiment [8], 20 µg/mL; in experiment [1] it was 2.5 µg/mL. Also, the IC50 on beta-Lactamase [2] was 2460 nM; on beta-Lactamase [4] it was 7.87 nM. The “beta-Lactamase-inhibitory activity [1D50]” value with beta-Lactamase [3] came to 0.017 µg/mL; at beta-Lactamase [5], 0.0038 µg/mL.
